target: FXR (Homo sapiens (Human), UniProt Q96RI1); assay: transient human FXR/Gal4-luciferase reporter assay; format: cell-based; details: not given
How it was run: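 Compound exposure ran overnight at 37 °C and activity was measured as luminescence with Steady-Glo reagent. The cells were a HEK293 line stably expressing firefly luciferase under five Gal4 response elements. They were transiently transfected, one night beforehand, with a plasmid encoding Gal4 DNA-binding domain fused to the human FXR ligand-binding domain.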

Chain of FXR (Q96RI1 262-486): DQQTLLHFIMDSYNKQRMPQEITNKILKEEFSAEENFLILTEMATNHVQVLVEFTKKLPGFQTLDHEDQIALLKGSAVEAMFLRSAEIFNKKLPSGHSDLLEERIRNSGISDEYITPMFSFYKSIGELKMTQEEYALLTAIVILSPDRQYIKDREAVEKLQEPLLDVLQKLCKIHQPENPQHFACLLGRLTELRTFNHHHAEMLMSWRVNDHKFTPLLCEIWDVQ

Structure (SMILES)	EC50
O=C(N(CC12CCC(c3ccc(C(F)(F)F)cn3)(CC1)CC2)c1cccc(-c2cnc(C3CC3)nc2)c1)C12CC(F)(C1)C2 [Example 490, N-(3-(2-cyclopropylpyrimidin-5-yl)phenyl)-3-fluoro-N-((4-(5-(trifluoromethyl)pyridin-2-yl)bicyclo[2.2.2]octan-1-yl)methyl)bicyclo[1.1.1]pentane-1-carboxamide]	334 nM
O=C(N(CC12CCC(c3ccc(C(F)(F)F)cn3)(CC1)CC2)c1cccc(-c2cnc(C(F)(F)F)nc2)c1)C12CC(F)(C1)C2 [Example 491, 3-fluoro-N-((4-(5-(trifluoromethyl)pyridin-2-yl)bicyclo[2.2.2]octan-1-yl)methyl)-N-(3-(2-(trifluoromethyl)pyrimidin-5-yl)phenyl)bicyclo[1.1.1]pentane-1-carboxamide]	1630 nM
CCOc1ccc(-c2cccc(N(CC34CCC(c5ccc(C(F)(F)F)cn5)(CC3)CC4)C(=O)C34CC(F)(C3)C4)c2)cn1 [Example 492, N-(3-(6-ethoxypyridin-3-yl)phenyl)-3-fluoro-N-((4-(5-(trifluoromethyl)pyridin-2-yl)bicyclo[2.2.2]octan-1-yl)methyl)bicyclo[1.1.1]pentane-1-carboxamide]	567 nM
O=C(N(CC12CCC(c3ccc(C(F)(F)F)cn3)(CC1)CC2)c1cccc(-c2ccc(OC(F)F)cc2)c1)C12CC(F)(C1)C2 [Example 493, N-(4′-(difluoromethoxy)-[1,1′-biphenyl]-3-yl)-3-fluoro-N-((4-(5-(trifluoromethyl)pyridin-2-yl)bicyclo[2.2.2]octan-1-yl)methyl)bicyclo[1.1.1]pentane-1-carboxamide]	552 nM
COc1ncc(-c2cccc(N(CC34CCC(c5ccc(C(F)(F)F)cn5)(CC3)CC4)C(=O)C34CC(F)(C3)C4)c2)cn1 [Example 494, 3-fluoro-N-(3-(2-methoxypyrimidin-5-yl)phenyl)-N-((4-(5-(trifluoromethyl)pyridin-2-yl)bicyclo[2.2.2]octan-1-yl)methyl)bicyclo[1.1.1]pentane-1-carboxamide]	516 nM
CCc1cnc(-c2cccc(N(CC34CCC(c5ccc(C(F)(F)F)cn5)(CC3)CC4)C(=O)C34CC(F)(C3)C4)c2)nc1 [Example 496, N-(3-(5-ethylpyrimidin-2-yl)phenyl)-3-fluoro-N-((4-(5-(trifluoromethyl)pyridin-2-yl)bicyclo[2.2.2]octan-1-yl)methyl)bicyclo[1.1.1]pentane-1-carboxamide]	539 nM
CCc1ccc(-c2cccc(N(CC34CCC(c5ccc(C(F)(F)F)cn5)(CC3)CC4)C(=O)C34CC(F)(C3)C4)c2)cc1 [Example 497, N-(4′-ethyl-[1,1′-biphenyl]-3-yl)-3-fluoro-N-((4-(5-(trifluoromethyl)pyridin-2-yl)bicyclo[2.2.2]octan-1-yl)methyl)bicyclo[1.1.1]pentane-1-carboxamide]	989 nM
CCOc1cnc(-c2cccc(N(CC34CCC(c5ccc(C(F)(F)F)cn5)(CC3)CC4)C(=O)C34CC(F)(C3)C4)c2)nc1 [Example 498, N-(3-(5-ethoxypyrimidin-2-yl)phenyl)-3-fluoro-N-((4-(5-(trifluoromethyl)pyridin-2-yl)bicyclo[2.2.2]octan-1-yl)methyl)bicyclo[1.1.1]pentane-1-carboxamide]	524 nM
O=C(N(CC12CCC(c3ccc(C(F)(F)F)cn3)(CC1)CC2)c1cccc(-c2ncc(OC(F)F)cn2)c1)C12CC(F)(C1)C2 [Example 499, N-(3-(5-(difluoromethoxy)pyrimidin-2-yl)phenyl)-3-fluoro-N-((4-(5-(trifluoromethyl)pyridin-2-yl)bicyclo[2.2.2]octan-1-yl)methyl)bicyclo[1.1.1]pentane-1-carboxamide]	135 nM
COc1cnc(-c2cccc(N(CC34CCC(c5ccc(C(F)(F)F)cn5)(CC3)CC4)C(=O)C34CC(F)(C3)C4)c2)nc1 [Example 500, 3-fluoro-N-(3-(5-methoxypyrimidin-2-yl)phenyl)-N-((4-(5-(trifluoromethyl)pyridin-2-yl)bicyclo[2.2.2]octan-1-yl)methyl)bicyclo[1.1.1]pentane-1-carboxamide]	810 nM
CCOc1ncc(-c2cccc(N(CC34CCC(c5nc(C(C)(C)C)no5)(CC3)CC4)C(=O)[C@H]3C[C@@H](OC)C3)c2)cn1 [Example 502, (1S,3S)—N-((4-(3-(tert-butyl)-1,2,4-oxadiazol-5-yl)bicyclo[2.2.2]octan-1-yl)methyl)-N-(3-(2-ethoxypyrimidin-5-yl)phenyl)-3-methoxycyclobutane-1-carboxamide]	689 nM
CCOc1ncc(-c2cccc(N(CC34CCC(c5nc(C(C)(C)C)no5)(CC3)CC4)C(=O)C3(C)COC3)c2)cn1 [Example 503, N-((4-(3-(tert-butyl)-1,2,4-oxadiazol-5-yl)bicyclo[2.2.2]octan-1-yl)methyl)-N-(3-(2-ethoxypyrimidin-5-yl)phenyl)-3-methyloxetane-3-carboxamide]	1580 nM
CCOc1ncc(-c2cccc(N(CC34CCC(c5nc(C(C)(C)C)no5)(CC3)CC4)C(=O)C34CC(NC(=O)OC(C)(C)C)(C3)C4)c2)cn1 [Example 505, tert-butyl (3-(((4-(3-(tert-butyl)-1,2,4-oxadiazol-5-yl)bicyclo[2.2.2]octan-1-yl)methyl) (3-(2-ethoxypyrimidin-5-yl)phenyl)carbamoyl)bicyclo[1.1.1]pentan-1-yl)carbamate]	621 nM
CCOc1ncc(-c2cccc(N(CC34CCC(c5nc(C(C)(C)C)no5)(CC3)CC4)C(=O)C34CC(N)(C3)C4)c2)cn1 [Example 506, 3-amino-N-((4-(3-(tert-butyl)-1,2,4-oxadiazol-5-yl)bicyclo[2.2.2]octan-1-yl)methyl)-N-(3-(2-ethoxypyrimidin-5-yl)phenyl)bicyclo[1.1.1]pentane-1-carboxamide]	2370 nM
CCOc1ncc(-c2cccc(N(CC34CCC(c5nc(C(C)(C)C)no5)(CC3)CC4)C(=O)C3CC(O)(C(F)(F)F)C3)c2)cn1 [Example 507, (1S,3S)—N-((4-(3-(tert-butyl)-1,2,4-oxadiazol-5-yl)bicyclo[2.2.2]octan-1-yl)methyl)-N-(3-(2-ethoxypyrimidin-5-yl)phenyl)-3-hydroxy-3-(trifluoromethyl)cyclobutane-1-carboxamide]	188 nM
CCOc1ncc(-c2cccc(N(CC34CCC(c5noc(C(C)(C)C)n5)(CC3)CC4)C(=O)C3CC(O)(C(F)(F)F)C3)c2)cn1 [Example 509, (1S,3S)—N-((4-(5-(tert-butyl)-1,2,4-oxadiazol-3-yl)bicyclo[2.2.2]octan-1-yl)methyl)-N-(3-(2-ethoxypyrimidin-5-yl)phenyl)-3-hydroxy-3-(trifluoromethyl)cyclobutane-1-carboxamide]	230 nM
CCOc1ncc(-c2cccc(N(CC34CCC(c5noc(C(C)(C)C)n5)(CC3)CC4)C(=O)C3(C)COC3)c2)cn1 [Example 510, N-((4-(5-(tert-butyl)-1,2,4-oxadiazol-3-yl)bicyclo[2.2.2]octan-1-yl)methyl)-N-(3-(2-ethoxypyrimidin-5-yl)phenyl)-3-methyloxetane-3-carboxamide]	974 nM
CCOc1ncc(-c2cccc(N(CC34CCC(c5noc(C(C)(C)C)n5)(CC3)CC4)C(=O)[C@H]3C[C@@H](OC)C3)c2)cn1 [Example 511, (1S,3S)—N-((4-(5-(tert-butyl)-1,2,4-oxadiazol-3-yl)bicyclo[2.2.2]octan-1-yl)methyl)-N-(3-(2-ethoxypyrimidin-5-yl)phenyl)-3-methoxycyclobutane-1-carboxamide]	411 nM
CC(C)(C)c1nc(C23CCC(CN(C(=O)C4CC(O)(C(F)(F)F)C4)c4cccc(-c5ccc(OC(F)F)cc5)c4)(CC2)CC3)no1 [Example 516, (1S,3S)—N-((4-(5-(tert-butyl)-1,2,4-oxadiazol-3-yl)bicyclo[2.2.2]octan-1-yl)methyl)-N-(4′-(difluoromethoxy)-[1,1′-biphenyl]-3-yl)-3-hydroxy-3-(trifluoromethyl)cyclobutane-1-carboxamide]	94 nM

same assay, conditions: Gal4-hFXR fusion construct, HEK293 reporter cells; response relative to 8 μM GW-4064

EC50	Structure (SMILES)
271 nM	O=C(N(CC12CCC(c3ccc(C(F)(F)F)cn3)(CC1)CC2)c1cccc(-c2ccc(OC(F)F)cn2)c1)C12CC(F)(C1)C2 [Example 495, N-(3-(5-(difluoromethoxy)pyridin-2-yl)phenyl)-3-fluoro-N-((4-(5-(trifluoromethyl)pyridin-2-yl)bicyclo[2.2.2]octan-1-yl)methyl)bicyclo[1.1.1]pentane-1-carboxamide]
909 nM	CC(C)(C)c1nc(C23CCC(CN(c4cccc(-c5ccc(NS(C)(=O)=O)cc5)c4)C(=O)[C@H]4C[C@@](C)(O)C4)(CC2)CC3)no1 [Example 512, (cis)-N-((4-(5-(tert-butyl)-1,2,4-oxadiazol-3-yl)bicyclo[2.2.2]octan-1-yl)methyl)-3-hydroxy-3-methyl-N-(4′-(methylsulfonamido)-[1,1′-biphenyl]-3-yl)cyclobutane-1-carboxamide]
357 nM	CC1(C(=O)N(CC23CCC(c4noc(C(C)(C)C)n4)(CC2)CC3)c2cccc(-c3ccc(OC(F)F)cc3)c2)COC1 [Example 515, N-((4-(5-(tert-butyl)-1,2,4-oxadiazol-3-yl)bicyclo[2.2.2]octan-1-yl)methyl)-N-(4′-(difluoromethoxy)-[1,1′-biphenyl]-3-yl)-3-methyloxetane-3-carboxamide]

Structure (SMILES)	EC50
CC(C)(C)c1nc(C23CCC(CN(C(=O)C4CC(O)(C(F)(F)F)C4)c4cccc(-c5ccc(NS(C)(=O)=O)cc5)c4)(CC2)CC3)no1 [Example 513, (1S,3S)—N-((4-(5-(tert-butyl)-1,2,4-oxadiazol-3-yl)bicyclo[2.2.2]octan-1-yl)methyl)-3-hydroxy-N-(4′-(methylsulfonamido)-[1,1′-biphenyl]-3-yl)-3-(trifluoromethyl)cyclobutane-1-carboxamide]	922 nM
CO[C@H]1C[C@@H](C(=O)N(CC23CCC(c4noc(C(C)(C)C)n4)(CC2)CC3)c2cccc(-c3ccc(NS(C)(=O)=O)cc3)c2)C1 [Example 514, (1S,3S)—N-((4-(5-(tert-butyl)-1,2,4-oxadiazol-3-yl)bicyclo[2.2.2]octan-1-yl)methyl)-3-methoxy-N-(4′-(methylsulfonamido)-[1,1′-biphenyl]-3-yl)cyclobutane-1-carboxamide]	2260 nM

— patent publication US11254663B2 (BRISTOL-MYERS SQUIBB COMPANY, priority 2019, dated 2022)
